From patent publication US7667040B2, “Azacyclic ethynyl derivatives” (Neurosearch A/S, priority 2002, dated 2010)
Counter-ions that a name gives are not always drawn. Like-named read-outs stand apart in the source and are kept apart here.

How the values were obtained:
[1] = molecular target: T1, α7-subtype of nicotinic receptors (Rattus norvegicus, UniProt Q05941); assay: In vitro inhibition of 3H-α-bungarotoxine binding in rat brain
T1 construct: Cerebral cortices from male Wistar rats (150-250 g) are homogenised; from tissue; host or cells: rat cerebral cortex membrane homogenate
T1 sequence (Q05941 23-502): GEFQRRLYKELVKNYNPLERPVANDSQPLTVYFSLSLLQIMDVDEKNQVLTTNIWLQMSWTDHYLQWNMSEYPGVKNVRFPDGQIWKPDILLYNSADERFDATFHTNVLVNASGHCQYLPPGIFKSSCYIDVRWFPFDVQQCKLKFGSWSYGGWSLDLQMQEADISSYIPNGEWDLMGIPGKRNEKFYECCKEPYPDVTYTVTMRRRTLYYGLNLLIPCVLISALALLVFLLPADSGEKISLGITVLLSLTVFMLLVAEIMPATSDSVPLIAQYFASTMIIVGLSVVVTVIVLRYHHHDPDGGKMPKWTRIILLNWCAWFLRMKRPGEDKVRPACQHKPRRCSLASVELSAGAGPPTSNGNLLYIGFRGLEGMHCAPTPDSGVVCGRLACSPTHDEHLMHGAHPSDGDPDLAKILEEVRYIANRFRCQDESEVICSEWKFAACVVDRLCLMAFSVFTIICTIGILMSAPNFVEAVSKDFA

serotonin transporter = molecular target: T2, serotonin transporter (Rattus norvegicus, UniProt P31652); assay: In vitro inhibition of 3H-5-hydroxytryptamine uptake in cortical synaptosomes; assay type: biochemical; conditions: 1 nM 3H-5-HT, 30 minutes at 37° C.
T2 construct: Cerebral cortices from male Wistar rats (150-200 g) are homogenized; from tissue; host or cells: rat cerebral cortex synaptosomes (P2 pellet)
T2 sequence (P31652 whole entry): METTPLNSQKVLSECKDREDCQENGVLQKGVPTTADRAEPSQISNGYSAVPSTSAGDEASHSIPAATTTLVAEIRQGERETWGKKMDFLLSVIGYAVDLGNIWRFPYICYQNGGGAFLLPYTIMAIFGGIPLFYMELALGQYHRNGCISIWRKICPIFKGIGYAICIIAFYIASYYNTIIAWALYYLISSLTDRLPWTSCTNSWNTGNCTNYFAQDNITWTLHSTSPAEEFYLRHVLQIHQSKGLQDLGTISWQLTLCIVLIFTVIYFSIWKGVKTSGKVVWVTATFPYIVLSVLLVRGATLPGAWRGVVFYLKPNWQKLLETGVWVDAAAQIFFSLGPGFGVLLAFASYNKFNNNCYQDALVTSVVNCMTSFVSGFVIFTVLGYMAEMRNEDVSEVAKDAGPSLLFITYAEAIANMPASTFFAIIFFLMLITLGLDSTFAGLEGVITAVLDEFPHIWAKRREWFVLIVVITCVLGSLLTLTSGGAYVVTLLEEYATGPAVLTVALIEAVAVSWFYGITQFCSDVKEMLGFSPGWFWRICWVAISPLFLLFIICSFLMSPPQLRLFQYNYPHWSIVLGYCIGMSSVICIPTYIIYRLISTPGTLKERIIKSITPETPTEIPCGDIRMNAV
Description: In vitro Inhibition of ^3H-5-Hydroxytryptamine Uptake in Cortical Synaptosomes
Serotonin transporters/uptake sites on nerve terminals presumably function to terminate neuronal signaling by removing serotonin from the synaptic cleft. The activity of the serotonin transporter integral protein can be measured in vitro by synaptosomal uptake of ^3H-5-hydroxytryptamine (5-HT, serotonin).
Preparations are performed at 0-4° C. Cerebral cortices from male Wistar rats (150-200 g) are homogenized for 5-10 seconds in 100 volumes of ice-cold 0.32 M sucrose containing 1 mM pargyline, using a motor driven teflon pestle in a glass homogenizing vessel. Monoamine oxidase activity is inhibited in the presence of pargyline.
The homogenate is subjected to centrifugation at 1000×g for 10 minutes. The resulting supernatant is then centrifuged at 27,000×g for 50 minutes and the supernatant is discarded. The pellet (P2) is re-suspended in oxygenated (equilibrated with an atmosphere of 96% O2: 4% CO2 for at least 30 minutes) Krebs-Ringer incubation buffer (1000 ml per g of original tissue) at pH 7.2 containing 122 mM NaCl, 0.16 mM EDTA, 4.8 mM KCl, 12.7 mM Na2HPO4, 3.0 mM NaH2PO4, 1.2 mM MgSO4, 1 mM CaCl2, 10 mM glucose and 1 mM ascorbic acid.
Aliquots of 4.0 ml tissue suspension are added to 100 μl, of test solution and 100 μl of ^3H-5-HT (1 nM, final concentration), mixed and incubated for 30 minutes at 37° C. Non-specific uptake is determined using Citalopram (1 μM, final concentration, available from Lundbeck, Denmark).
After incubation, the samples are poured directly onto Whatman GF/C glass fibre filters under suction. The filters are washed three times with 5 ml of ice-cold 0.9% (w/v) NaCl solution.
The amount of radioactivity on the filters is determined by conventional liquid scintillation counting. Specific uptake is calculated as the difference between total uptake and non-specific uptake.
25-75% inhibition of specific binding must be obtained, before calculation of an IC50.
The test value is given as IC50 (the concentration (μM) of the test substance which inhibits the specific binding of ^3H-5-HT by 50%).

[2] = rat cerebral cortex homogenate, 2 nM 3H-α-bungarotoxine, 2 hours at 37° C., read-out: Inhibition of 3H-α-Bungarotoxine Binding IC50

Structure (SMILES) | IC50 [1] [nM] | IC50 (serotonin transporter) [nM] | IC50 [1, 2] [nM]
CN1C2C=C(C#Cc3ccccc3)CC1CC2 (racemic) [Compound 1, (±)-8-Methyl-3-phenyletynyl-8-azabicyclo[3.2.1]oct-2-ene fumaric acid salt] | 320 | 110 | –
C[N+]1(C)C2C=C(C#Cc3ccccc3)CC1CC2 (racemic) [Compound B1, (±)-8,8-Dimethyl-3-phenyletynyl-8-azabicyclo[3.2.1]oct-2-ene iodide salt] | – | – | 2
C[N+]12C=C(C#Cc3ccccc3)C(CC1)CC2 (racemic) [Compound B2, (±)-1-Methyl-3-phenyletynyl-quinuclidin-2-ene iodide salt] | – | 100 | 600
C(#Cc1ccccc1)C1=CC2CCC(C1)N2 (racemic) [Compound C1, (±)-8-H-3-Phenyletynyl-8-azabicyclo[3.2.1]oct-2-ene fumaric acid salt] | – | 99 | –
C(#Cc1ccccc1)C1=CN2CCC1CC2 [Compound A1, (±)-3-Phenyletynyl-quinuclidin-2-ene] | – | 420 | 180
